Tested on: T1, chitinase 1198 Truncated
T1 construct: gene CT01GL001198; perhaps lacks disordered N-terminus (residues 1-201; approx. 63 kD proteolysis bands mentioned)
Test: p-nitrophenol release, absorbance at […] nm
Type: biochemical, Chitinibacter tainanensis
Details: standard assay 50 mM Tris-HCl pH 7.0, substrate 5-300 μM; temperature of kinetic run not stated

**Q.** How did the Km turn out when `CC(=O)N[C@H]1[C@H](Oc2ccc([N+](=O)[O-])cc2)O[C@H](CO)[C@@H](O[C@@H]2O[C@H](CO)[C@@H](O)[C@H](O)[C@H]2NC(C)=O)[C@@H]1O` [pNP-(GlcNAc)2] was run?
**A.** Its Km is 58.3 ± 11 µM.

Reference: article PMC7463862, “Gene Cloning, Characterization, and Molecular Simulations of a Novel Recombinant Chitinase from Chitinibacter Tainanensis CT01 Appropriate for Chitin Enzymatic Hydrolysis” (Polymers, 2020)
